Assay results reported in patent US8952024B2, “Herbicidal pyrimidone derivatives” (E I du Pont de Nemours and Company, priority 2009, dated 2015).

Tests used:
Format in all cases: in vivo
[1] = tested on: barnyardgrass (Echinochloa crus-galli); experiment: Test A pre-/postemergence plant response
From the text: (§1) Seeds of barnyardgrass (Echinochloa crus-galli), large crabgrass (Digitaria sanguinalis), giant foxtail (Setaria faberii), morningglory (Ipomoea spp.), pigweed (Amaranthus retroflexus), velvetleaf (Abutilon theophrasti), wheat (Triticum aestivum) and corn (Zea mays) were planted into a blend of loam soil and sand and treated preemergence with a directed soil spray using test chemicals formulated in a non-phytotoxic solvent mixture which included a surfactant. At the same time these species were also treated with postemergence applications of test compounds formulated in the same manner.
(§2) Plants ranged in height from two to ten cm and were in the one- to two-leaf stage for the postemergence treatment. Treated plants and untreated controls were maintained in a greenhouse for approximately ten days, after which time all treated plants were compared to untreated controls and visually evaluated for injury. Plant response ratings, summarized in Table A, are based on a 0 to 100 scale where 0 is no effect and 100 is complete control. A dash (-) response means no test result.

corn (Zea mays) = experiment: Test A pre-/postemergence plant response
From the text: as §1, §2

[2] = tested on: giant foxtail (Setaria faberii); experiment: Test A pre-/postemergence plant response
From the text: as §1, §2

[3] = tested on: large crabgrass (Digitaria sanguinalis); experiment: Test A pre-/postemergence plant response
From the text: as §1, §2

[4] = tested on: morningglory (Ipomoea spp.); experiment: Test A pre-/postemergence plant response
From the text: as §1, §2

[5] = tested on: pigweed (Amaranthus retroflexus); experiment: Test A pre-/postemergence plant response
From the text: as §1, §2

[6] = tested on: velvetleaf (Abutilon theophrasti); experiment: Test A pre-/postemergence plant response
From the text: as §1, §2

[7] = tested on: wheat (Triticum aestivum); experiment: Test A pre-/postemergence plant response
From the text: as §1, §2

[8] = tested on: barnyardgrass (Echinochloa crus-galli); experiment: Test B flooded paddy test; settings: for Plant response rating, Flood, Barnyardgrass: 250 g ai/ha, flooded paddy test, visual rating on 0 to 100 scale (0 no effect, 100 complete control) after 13 to 15 days; for Plant response rating, Barnyardgrass: Flood (flooded paddy test), 13 to 15 days
From the text: (§3) Plant species in the flooded paddy test consisted of rice (Oryza sativa), umbrella sedge (Cyperus difformis), ducksalad (Heteranthera limosa) and barnyardgrass (Echinochloa crus-galli) grown to the 2-leaf stage for testing. At the time of treatment, test pots were flooded with water to 3 cm above the soil surface, treated by application of test compounds directly to the paddy water, and then maintained at that water depth for the duration of the test.
(§4) Treated plants and controls were maintained in a greenhouse for 13 to 15 days, after which time all treated plants were visually evaluated and compared to controls. Plant response ratings, summarized in Table B, are based on a scale of 0 to 100 where 0 is no effect and 100 is complete control. A dash (-) response means no test result.

[9] = tested on: ducksalad (Heteranthera limosa); experiment: Test B flooded paddy test; settings: for Plant response rating, Flood, Ducksalad: 250 g ai/ha, flooded paddy test, visual rating on 0 to 100 scale (0 no effect, 100 complete control) after 13 to 15 days; for Plant response rating, Ducksalad: Flood (flooded paddy test), 13 to 15 days
From the text: as §3, §4

rice (Oryza sativa) = experiment: Test B flooded paddy test; settings: for Plant response rating, Flood, Rice: 250 g ai/ha, flooded paddy test, visual rating on 0 to 100 scale (0 no effect, 100 complete control) after 13 to 15 days; for Plant response rating, Rice: Flood (flooded paddy test), 13 to 15 days
From the text: as §3, §4

[10] = tested on: umbrella sedge (Cyperus difformis); experiment: Test B flooded paddy test; settings: for Plant response rating, Flood, Sedge, Umbrella: 250 g ai/ha, flooded paddy test, visual rating on 0 to 100 scale (0 no effect, 100 complete control) after 13 to 15 days; for Plant response rating, Sedge, Umbrella: Flood (flooded paddy test), 13 to 15 days
From the text: as §3, §4

[11] = Postemergence, 125 g ai/ha, visual injury, 0 to 100 scale (0 no effect, 100 complete control), approx. ten days
[12] = Postemergence, 500 g ai/ha, 0 to 100 scale, 0 = no effect, 100 = complete control, approx. ten days
[13] = Preemergence, 125 g ai/ha, 0 to 100 scale, 0 = no effect, 100 = complete control
[14] = Preemergence, 500 g ai/ha, visual injury, 0 to 100 scale (0 no effect, 100 complete control), approx. ten days
[15] = 31 g ai/ha, scale of 0 to 100 where 0 is no effect and 100 is complete control
[16] = 62 g ai/ha, scale of 0 to 100 where 0 is no effect and 100 is complete control
[17] = 125 g ai/ha, scale 0 to 100, 0 is no effect, 100 is complete control
[18] = Flood, 31 g ai/ha, scale 0 to 100 (0 no effect, 100 complete control)

## O=C1CCCC(O)=C1C(=O)c1cnc(-c2ccccc2)n(-c2ccc(F)cc2F)c1=O [Compound 57]
[1]; [11]
  Barnyardgrass plant response rating: 70
[1]; [12]
  Plant response rating, Barnyardgrass: 90
[1]; [13]
  Plant response rating, Barnyardgrass: 40
[1]; [14]
  Plant response rating, Barnyardgrass: 90
Corn (Zea mays); [11]
  Corn plant response rating: 0
Corn (Zea mays); [12]
  Plant response rating, Corn: 40
Corn (Zea mays); [13]
  Plant response rating, Corn: 0
Corn (Zea mays); [14]
  Plant response rating, Corn: 0
[2]; [11]
  Foxtail, Giant plant response rating: 80
[2]; [12]
  Plant response rating, Foxtail, Giant: 90
[2]; [13]
  Plant response rating, Foxtail, Giant: 70
[2]; [14]
  Plant response rating, Foxtail, Giant: 90
[3]; [11]
  Crabgrass, Large plant response rating: 80
[3]; [12]
  Plant response rating, Crabgrass, Large: 90
[3]; [13]
  Plant response rating, Crabgrass, Large: 90
[3]; [14]
  Plant response rating, Crabgrass, Large: 100
[4]; [11]
  Morningglory plant response rating: 50
[4]; [12]
  Plant response rating, Morningglory: 60
[4]; [13]
  Plant response rating, Morningglory: 20
[4]; [14]
  Plant response rating, Morningglory: 80
[5]; [11]
  Pigweed plant response rating: 90
[5]; [12]
  Plant response rating, Pigweed: 100
[5]; [13]
  Plant response rating, Pigweed: 90
[5]; [14]
  Plant response rating, Pigweed: 100
[6]; [11]
  Velvetleaf plant response rating: 100
[6]; [12]
  Plant response rating, Velvetleaf: 100
[6]; [13]
  Plant response rating, Velvetleaf: 80
[6]; [14]
  Plant response rating, Velvetleaf: 100
[7]; [11]
  Wheat plant response rating: 0
[7]; [12]
  Plant response rating, Wheat: 10
[7]; [13]
  Plant response rating, Wheat: 0
[7]; [14]
  Plant response rating, Wheat: 0
[8]
  Plant response rating, Flood, Barnyardgrass: 25
[8]; [15]
  Plant response rating, Barnyardgrass: 0
[8]; [16]
  Plant response rating, Barnyardgrass: 0
[8]; [17]
  Plant response rating, Barnyardgrass: 20
[9]
  Plant response rating, Flood, Ducksalad: 60
[9]; [15]
  Plant response rating, Ducksalad: 0
[9]; [16]
  Plant response rating, Ducksalad: 0
[9]; [17]
  Plant response rating, Ducksalad: 40
Rice (Oryza sativa)
  Plant response rating, Flood, Rice: 25
Rice (Oryza sativa); [15]
  Plant response rating, Rice: 0
Rice (Oryza sativa); [16]
  Plant response rating, Rice: 0
Rice (Oryza sativa); [17]
  Plant response rating, Rice: 15
[10]
  Plant response rating, Flood, Sedge, Umbrella: 75
[10]; [15]
  Plant response rating, Sedge, Umbrella: 0
[10]; [16]
  Plant response rating, Sedge, Umbrella: 0
[10]; [17]
  Plant response rating, Sedge, Umbrella: 50

## O=C1CCCC(O)=C1C(=O)c1cnc(-c2ccc(Cl)s2)n(-c2ccccc2)c1=O [Compound 65]
[1]; [11]
  Barnyardgrass plant response rating: 10
[1]; [12]
  Plant response rating, Barnyardgrass: 50
[1]; [13]
  Plant response rating, Barnyardgrass: 0
[1]; [14]
  Plant response rating, Barnyardgrass: 10
Corn (Zea mays); [11]
  Corn plant response rating: 0
Corn (Zea mays); [12]
  Plant response rating, Corn: 0
Corn (Zea mays); [13]
  Plant response rating, Corn: 0
Corn (Zea mays); [14]
  Plant response rating, Corn: 0
[2]; [11]
  Foxtail, Giant plant response rating: 10
[2]; [12]
  Plant response rating, Foxtail, Giant: 40
[2]; [13]
  Plant response rating, Foxtail, Giant: 0
[2]; [14]
  Plant response rating, Foxtail, Giant: 40
[3]; [11]
  Crabgrass, Large plant response rating: 30
[3]; [12]
  Plant response rating, Crabgrass, Large: 60
[3]; [13]
  Plant response rating, Crabgrass, Large: 10
[3]; [14]
  Plant response rating, Crabgrass, Large: 80
[4]; [11]
  Morningglory plant response rating: 50
[4]; [12]
  Plant response rating, Morningglory: 60
[4]; [13]
  Plant response rating, Morningglory: 0
[4]; [14]
  Plant response rating, Morningglory: 0
[5]; [11]
  Pigweed plant response rating: 20
[5]; [12]
  Plant response rating, Pigweed: 60
[5]; [13]
  Plant response rating, Pigweed: 0
[5]; [14]
  Plant response rating, Pigweed: 0
[6]; [11]
  Velvetleaf plant response rating: 90
[6]; [12]
  Plant response rating, Velvetleaf: 100
[6]; [13]
  Plant response rating, Velvetleaf: 30
[6]; [14]
  Plant response rating, Velvetleaf: 50
[7]; [11]
  Wheat plant response rating: 0
[7]; [12]
  Plant response rating, Wheat: 0
[7]; [13]
  Plant response rating, Wheat: 0
[7]; [14]
  Plant response rating, Wheat: 0
[8]
  Plant response rating, Flood, Barnyardgrass: 0
[8]; [16]
  Plant response rating, Barnyardgrass: 0
[8]; [17]
  Plant response rating, Barnyardgrass: 0
[8]; [18]
  Barnyardgrass plant response rating: 0
[9]
  Plant response rating, Flood, Ducksalad: 0
[9]; [16]
  Plant response rating, Ducksalad: 0
[9]; [17]
  Plant response rating, Ducksalad: 0
[9]; [18]
  Ducksalad plant response rating: 0
Rice (Oryza sativa)
  Plant response rating, Flood, Rice: 0
Rice (Oryza sativa); [16]
  Plant response rating, Rice: 0
Rice (Oryza sativa); [17]
  Plant response rating, Rice: 0
Rice (Oryza sativa); [18]
  Rice plant response rating: 0
[10]
  Plant response rating, Flood, Sedge, Umbrella: 0
[10]; [16]
  Plant response rating, Sedge, Umbrella: 0
[10]; [17]
  Plant response rating, Sedge, Umbrella: 0
[10]; [18]
  Sedge, Umbrella plant response rating: 0
